Results as given in a melting point compilation (Tetko et al.; mined from patent text by program, amines drawn as free bases though some values may be those of a salt).

Row | melting point | Compound
1 | 119 to 120 °C | Cc1cc(O)c(S(=O)(=O)C(C)(C)C)c(=O)o1
2 | 104 to 105 °C | O=c1ccc2c(OS(=O)(=O)C(F)(F)F)cccc2o1
3 | 121 to 123 °C | O=C1CCC(CO)N1OCc1ccccc1 (configuration not stated)
4 | 65 to 66 °C | C=CCc1oc2c(OC)cccc2c1CC(=O)OC
5 | 134 °C | CC(C)c1nc(N(C)S(C)(=O)=O)nc(-c2ccc(F)cc2)c1/C=C/C#N
6 | 263 °C | Clc1cc(Cl)c2nc[nH]c2n1
7 | 187 to 188 °C | Cc1c(F)c(N2CCNC(C)C2)c(F)c2c1c(=O)c(C(=O)O)cn2C1CC1 (configuration not stated)
8 | 147 to 148 °C | N#Cc1cnn(-c2ccc(CBr)cc2)n1
9 | 138 to 140 °C | CN1C(O)=C(C(=O)Nc2ccc(Br)cc2)c2cscc2S1(=O)=O
10 | 112 °C | COC=C(C(=O)OC)N(C)N1CSC(Br)=C1c1ccc(Br)cc1
11 | 108 °C | COC(=O)c1cn(-c2ncccn2)cc1C
12 | 129 to 132 °C | Oc1ccc2cc(COCC3CC3)ccc2c1
13 | 299 to 303 °C | O=C(O)c1cc(-c2ccccc2Cl)c[nH]c1=O
14 | 198 °C | CCc1ccc2c(c1)cc(C(=O)Nc1nc(-c3c(OC)cc(C)cc3OC)n(CCC3CCCCC3)n1)n2CC(=O)O
15 | 114 to 115 °C | CC1OC(=O)C2C1C1CCC2(OC(=O)C(C)(C)C)O1 (configuration not stated)
16 | 141 to 142 °C | CCCN1C(=O)C(NC(=O)Nc2cccc(N(C)c3nnn[nH]3)c2)N=C(N2CCN(C)CC2)c2ccccc21 (single isomer, unassigned; (-))
17 | 165 to 166 °C | O=C(O)c1ccc(OCCCc2ccccc2)cc1
18 | 127 to 130 °C | COc1cc2c(-c3ccnc(NN)c3)c(CO)c(CO)cc2cc1OC1CCCC1
19 | 266 to 270 °C | O=C(Nc1ccc(C(F)(F)F)cc1)NC1CCN(S(=O)(=O)c2ccc(Cl)cc2)CC1

Row | melting point | Compound
20 | 119 to 121 °C | CC(C)(C)OC(=O)Nc1ccc(-c2ccccc2)cc1[N+](=O)[O-]
21 | 64 to 66 °C | C=C1[C@H](O)C[C@H](O[Si](C)(C)C(C)(C)C)[C@H]1CO[Si](C)(C)C(C)(C)C
22 | > 300 °C | NC(=O)c1cc2c(c3nc(O)c(O)nc13)CCCC2
23 | 113 to 115 °C | Cc1nc2c(C#N)c(C)nn2c(Cl)c1CCCl
24 | 120 °C | O=C(Nc1ccc(Cl)cc1)C(O)c1ccccc1Cl (configuration not stated)
25 | 298 to 299 °C | CCCOc1ccccc1-c1nc2[nH]c(=O)nnc2c(=O)[nH]1
26 | > 300 °C | Cc1nn(-c2ccccn2)c2nc3ccccc3c(C(N)=O)c12
27 | 145 to 147 °C | CCCc1c2cc(C(=O)OCC)oc2cc2c(=O)cc(C(=O)OCC)oc12
28 | 112 to 114 °C | CCCCCSc1ccc(CN(O)C(N)=S)s1
29 | 80.2 °C | C=CCC(C#N)(C#N)Cc1ccc(C(F)(F)F)cc1
30 | 214 to 217 °C | O=C1CC(N2C=Nc3cccc(Br)c3C2)C(=O)N1 (configuration not stated)
31 | 125 °C | Cc1ccc2cc(NS(=O)(=O)c3cc(Cl)ccc3Cl)ccc2n1
32 | 211 to 214 °C | Cc1cc(C2=NN=C(C#N)Cc3cc4c(cc32)OCO4)ccc1[N+](=O)[O-]
33 | 186 to 187 °C | O=C1CC(=O)/C(=C/c2ccccc2)N1
34 | 107 to 108 °C | COC(=O)CCCC(=O)c1ccc(CCNC(C)=O)cc1
35 | 82 to 84 °C | CCC(CC)(NCCCn1cnc(CO)c1)c1ccccc1
36 | 139 to 140 °C | Cn1ncc2c1-c1c(Oc3ccc(OCc4ccc5ccccc5n4)cc3)sc(C(N)=O)c1CC2
37 | 129 to 131 °C | Brc1ccc(-c2nc(-c3cccc(Br)c3)n(-c3ccccc3)n2)cc1
38 | 79 °C | CN(C)Cc1ncccc1OC1SCC(O)C(O)C1O (configuration not stated)

Row | melting point | Compound
39 | 138 to 143 °C | CCON=C(C)c1ccc2c(c1)ncn2-c1cccc(C2=CCCN(C)C2)c1
40 | 88 to 112 °C | Cc1cc(O)c(C)c(C)c1OC(=O)C(C)(C)C
41 | 177 to 178 °C | NC(=O)C1CCc2[nH]c3ccc(OC(F)(F)F)cc3c2C1 (configuration not stated)
42 | 94 to 96 °C | Cc1ccccc1C=CC(=O)C=Cc1ccccc1C
43 | 127 to 128 °C | COc1cccc(OC)c1C(=O)C=Cc1c(Cl)cccc1Cl
44 | 111 to 112 °C | O=c1c2ccccc2sn1SCc1ccccc1
45 | 114 to 116 °C | COc1ccc(NN=C(Cl)C(C)=O)cc1
46 | 203 to 205 °C | COc1ccc(OC)c(CNc2ccc3nc[nH]c(=O)c3c2)c1
47 | 244 to 247 °C | Nc1c(-c2ccc(-c3ccc(F)cc3F)cc2)nc2ccccc2c1C(=O)O
48 | 224 °C | CC(c1cc(F)ccc1O)c1cc(Cl)cc(C(C)c2cc(F)ccc2O)c1O (configuration not stated)
49 | 166 to 168 °C | CCCCOCCOc1ccc(-c2ccc3c(c2)C=C(C(=O)Nc2ccc(C/C(=N\O)c4nccn4CCC)cc2)CCN3CC(C)C)cc1
50 | 126 to 127 °C | CN1CCN(CC2(O)CC=Cc3ncccc32)CC1 (configuration not stated)
51 | 131 to 132 °C | C#CCOCc1nnc(Cl)c2ccccc12
52 | 99 to 101 °C | N#CC(C#N)=C1N(CCCN2CCCCC2)CCN1CCCN1CCCCC1
53 | 79 to 81 °C | COc1cc(C(O)c2cccs2)cc([N+](=O)[O-])c1OC (configuration not stated)
54 | 137 to 138 °C | CO/N=C(\C)c1cccc(Nc2c3ccccc3nc3occc23)c1
55 | 206 to 208 °C | COC(=O)CC=CC=CC=CC=CC=Cc1ccsc1
56 | 258 to 260 °C | Cc1nc(NC(=O)c2ccccc2)sc1C(=O)NNC(=O)c1ccccc1

Further lines, the compound ahead of its results:

Row | Compound | melting point
57 | COc1ccc2c(c1)c(CC(=O)OC(OC(C)=O)c1ccccc1)c(C)n2C(=O)c1ccc(Cl)cc1 (configuration not stated) | 93 to 94 °C
58 | CCCOn1c(C)nc(N2CCc3ccccc3CC2)c(C#N)c1=O | 132 to 134 °C
59 | CCCCCCNC(=O)c1ccc(N2N=C(C)C(=CNc3ccccc3CC)C2=O)cc1 | 62.1 °C
60 | COc1ccc(S(=O)(=O)N2CCc3cccc(-c4cccs4)c32)cc1 | 128 to 129 °C
61 | CCSC1OC(CO)C(OC2OC(CO)C(O)C(O)C2O)C(O)C1O (configuration not stated) | 191 to 192 °C
62 | COC(=O)c1ccc(N2CCOCC2)c(NC(=N)N)c1 | 152 to 154 °C
63 | O=c1oc2ccc(Cl)cc2cc1S(=O)(=O)Cc1ccc(Cl)c([N+](=O)[O-])c1 | 272 to 275 °C
64 | COc1ccc2c(c1)C(C(=O)O)=Cc1ccccc1O2 | 150 °C
65 | COC(=O)[C@@H]1C[C@H](C(=O)OC(C)(C)C)N(C(=O)CNC(=O)Nc2ccc(Cl)cc2)[C@@H]1c1ccccc1 (racemic) | 125 °C
66 | O=C(O)C1c2cc(Br)ccc2OCc2ncccc21 (configuration not stated) | 126 to 127 °C
67 | O=C(NC(=O)C(c1ccccc1)c1ccccc1)OCCCCc1ccccc1 | 118 °C
68 | C=C(C)C1CCC2C3C=CC4=CC(=O)CCC4(C)C3C(O)CC12C (configuration not stated) | 153 to 155 °C
69 | C[Si](C)(c1ccc(N(c2ccccc2)c2ccccc2)cc1)c1ccc(N(c2ccccc2)c2ccccc2)cc1 | 170 to 172 °C
70 | NC1CCCCC1N1CCC(Cc2ccc(Cl)cc2)CC1 (configuration not stated) | 69.1 to 70.4 °C
71 | O=c1n(CCCC2CCCCC2)ccn1-c1ccc([N+](=O)[O-])cc1 | 153 to 156 °C
72 | CCCCOc1cc(/C=C(\OCC)C(=O)O)ccc1OCCc1ccc(OS(C)(=O)=O)cc1OC | 112 °C
73 | Cc1ccc(N2N=C(C(N)=O)NC2c2c(F)cccc2F)cc1COCC(F)(F)C(F)(F)F (configuration not stated) | 182 to 185 °C
74 | CC(C)CCCC(C)C1CCC2C3CC=C4CC(O)CC(O)C4(C)C3CCC12C (configuration not stated) | 158 to 161 °C
75 | CCOc1nc(NCc2ccco2)nc(N2CCN(Cc3ccccn3)CC2)n1 | 115 to 117 °C
76 | CC1CC(=O)c2cc(F)ccc2S1(=O)=O (configuration not stated) | 113 to 114 °C
77 | CC(C)Sc1c(C(N)=O)n(C)c2ccc(O)cc12 | 60 to 62 °C
78 | COC1=C(OC)C(=O)C(CCCCC[C@H]2CC[C@H](OC(C)=O)CC2)=C(C)C1=O | 33 to 34 °C
79 | CCc1cccc(C)c1CNc1cc(C(N)=O)nc2c1nc(C)n2C | 237 to 239 °C

Row | Compound | melting point
80 | COc1ccccc1N1CCN(c2nc3c(cc2F)c(=O)c(C(=O)O)cn3-c2ccc(F)cc2)CC1 | 272 to 273 °C
81 | COc1ccc(C2(CCO)CCN(C(=O)c3cc(OC)c(OC)c(OC)c3)C2)cc1OC (configuration not stated) | 60 to 62 °C
82 | CC(=O)N1Cc2nc(Cl)nc(Nc3ccc(F)c(Cl)c3)c2N=C1Cl | 178 °C
83 | CN1Cc2cncn2-c2ccc(F)cc2C1=O | 236 °C
84 | CCOCC(COCC)Oc1ccc(/C=C/CO)c(Oc2ncc(C(F)(F)F)cc2Cl)c1 | 52.5 to 54.5 °C
85 | C[C@@H](N1CCN(c2ccc(-n3cnn(Cc4ccc(C(F)(F)F)cc4C(F)(F)F)c3=O)cc2)CC1)[C@](O)(Cn1cncn1)c1ccc(F)cc1F | 146 to 148 °C
86 | COc1ccc(Cl)cc1C(CC(=O)O)c1ccccc1 (configuration not stated) | 144 °C
87 | CCOC(=O)CCc1ccc(OCc2ccc(Cn3nc(C(C)(C)C)cc3C(C)(C)C)cc2)cc1F | 73 to 74 °C
88 | O=C(NCc1ccc(Cl)cc1)c1cn2c(CSc3ccccc3)cc3cc(CN4CCOCC4)cc(c1=O)c32 | 173 to 175 °C
89 | CC(C)(C)C(=O)Nc1nc(Nc2cccc(Br)c2)c2c(n1)[nH]c1ccccc12 | 287 to 288 °C
90 | CCCCNC(=O)NCC1CCN(c2ncnc3cc(OC)c(OC)cc23)CC1 | 141 to 143 °C
91 | O=C(N[C@H]1CC[C@H](CCN2CCN(c3nccc4c3OCC4)CC2)CC1)c1ccc(C(F)(F)F)cc1 | 242 °C
92 | N#CNC(=Nc1ccccc1)NCCNCC(O)COc1ccccc1C#N (configuration not stated) | 146 to 147 °C
93 | CCCN(C(C)C)C1COc2cccc(C(=O)NC(C)C)c2C1 (configuration not stated) | 124 °C
94 | Cn1c(-c2ccccc2S(C)=O)nc2ccccc21 (configuration not stated) | 157 to 159 °C
95 | CN(C)c1ccc2nc(N)c(C#N)c(N=Cc3ccccc3)c2c1 | 265 °C
96 | COc1ccc(C=CC(=O)Nc2cccc(C(=O)O)c2)cc1OC | 225 to 226 °C
97 | O=C(Cl)CCCC(=O)Cl | 60.6 to 61.4 °C
98 | NC(=O)c1ccc(Cl)c2c1C=C([N+](=O)[O-])CO2 | 225 to 227 °C
99 | CCOc1ccccc1O[C@@H]1CN(CC)C[C@H]1O (relative stereo) | 73 to 75 °C
100 | CN(C)C(C(=O)C1CCCCC1)C1(c2ccc(Cl)c(Cl)c2)CCC1 (configuration not stated) | 79 to 80 °C
101 | CNC(=O)NC1CC(N)(C(=O)O)C2C(C(=O)O)C12 (configuration not stated) | > 275 °C
102 | CC1CN(c2ccc([N+](=O)[O-])cc2Cl)C(=O)O1 (configuration not stated) | 73 to 75 °C
